Values quoted from earlier work, collected in patent publication US7204996B2, “Method of cancer treatment” (Board of Regents, The University of Texas System, priority 1999, dated 2007).

Legend:
[1] = test system: MDR overexpressing HL-60 cells; settings: for resistance index decrease on coincubation with verapamil: in the presence of verapamil

SMILES | solubility in water solutions | cytotoxicity ([1]; MDR overexpressing HL-60 cells) | resistance index ([1]; compared with idarubicin and doxorubicin) | resistance index decrease on coincubation with verapamil [1]
C[C@@H]1O[C@@H](O[C@H]2C[C@](O)(C(=O)CO)Cc3c(O)c4c(c(O)c32)C(=O)c2ccccc2C4=O)[C@H](I)[C@H](O)[C@H]1O [Annamycin, (7S,9S)-4-demethoxy-7-O-(2,6-dideoxy-2-iodo-alphamannopryanosyl) adriamycinone] | completely insoluble | cytotoxic | lower than that of idarubicin and doxorubicin | did not change
COc1cccc2c1C(=O)c1c(O)c3c(c(O)c1C2=O)C[C@@](O)(C(=O)CO)C[C@@H]3O[C@H]1C[C@H](N)[C@H](O)[C@H](C)O1 [doxorubicin, reference compound] |  |  |  | 4.5 fold
CC(=O)[C@]1(O)Cc2c(O)c3c(c(O)c2[C@@H](O[C@H]2C[C@H](N)[C@H](O)[C@H](C)O2)C1)C(=O)c1ccccc1C3=O [idarubicin, reference compound] |  |  |  | 2 fold
